How the values were obtained:
TYK2 JH2 = target: T1, TYK2 JH2 (Homo sapiens, UniProt P29597); experiment: TYK2 JH2 binding assay (KINOMEscan KdELECT competitive binding); conditions: TYK2 JH2 domain, KINOMEscan KdELECT (Assay A); read-out: Biochemical TYK2_DiscoverX_JH2_BND_Kd
T1 construct: purchased DiscoverX (KINOMEscan KdELECT service); host or cells: E. coli BL21-derived (T7 phage display) or HEK-293
Summary of the method: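 Test compounds were titrated in 11 three-fold steps against JH2 fragment captured on ligand-loaded magnetic beads, with 1 h incubation at room temperature and DMSO at 0.9%. Eluted kinase was quantified by qPCR, and Kd was fitted from the dose series.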

[1] = test system: JAK1/TYK2 pSTAT5 (Tyr694/699) in THP-1 cell line; experiment: IFNa-stimulated JAK1/TYK2 pSTAT5 (Tyr694/699) inhibition cellular assay, AlphaLISA; assay type: cell-based; conditions: Homo sapiens; THP-1 cells, IFNa-stimulated, AlphaLISA (Assay B); read-out: Cellular_THP1_IFNa-pSTATS_TYK2
Summary of the method: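 THP-1, 2e4 cells/well, HBSS; cpd 1 h 37 °C (10000–0.04 nM final, 6-fold, 8 pt); IFNa 100 ng/mL added, 30 min; lyse, freeze −80 °C; pSTAT5 AlphaLISA, 615 nm; 4PL IC50, bottom fixed 0, slope −1.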

T1 sequence (P29597 589-875 limits assumed): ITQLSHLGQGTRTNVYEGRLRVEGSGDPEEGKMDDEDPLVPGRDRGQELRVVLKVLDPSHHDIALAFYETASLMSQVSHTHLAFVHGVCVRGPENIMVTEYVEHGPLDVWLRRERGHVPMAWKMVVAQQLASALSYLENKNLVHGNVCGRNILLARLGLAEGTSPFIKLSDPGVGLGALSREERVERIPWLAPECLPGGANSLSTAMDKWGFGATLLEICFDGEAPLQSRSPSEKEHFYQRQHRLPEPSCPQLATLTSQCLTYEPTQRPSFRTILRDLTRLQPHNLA

| Compound | Kd (TYK2 JH2) [nM] | IC50 [1] [nM] |
| --- | --- | --- |
| CNc1ncc(C#Cc2cnccn2)c2cc(NC(=O)C3CC3)ncc12 [Example 632, N-(8-(methylamino)-5-(pyrazin-2-ylethynyl)-2,7-naphthyridin-3-yl)cyclopropanecarboxamide] | ≤ 100 | ≤ 500 |
| CNc1ncc(C#Cc2cnc3ccccn23)c2cc(NC(=O)C3CC3)ncc12 [Example 633, N-(5-(imidazo[1,2-a]pyridin-3-ylethynyl)-8-(methylamino)-2,7-naphthyridin-3-yl)cyclopropanecarboxamide] | ≤ 100 | ≤ 500 |
| CNc1ncc(C#Cc2ccc(OC(C)C)cc2)c2cc(NC(=O)C3CC3)ncc12 [Example 634, N-(5-((4-isopropoxyphenyl)ethynyl)-8-(methylamino)-2,7-naphthyridin-3-yl)cyclopropanecarboxamide] | ≤ 100 | ≤ 500 |
| CNc1ncc(C#Cc2ccc(OC)cc2Cl)c2cc(NC(=O)C3CC3)ncc12 [Example 635, N-(5-((2-chloro-4-methoxyphenyl)ethynyl)-8-(methylamino)-2,7-naphthyridin-3-yl)cyclopropanecarboxamide] | ≤ 100 | ≤ 500 |
| CNc1ncc(C#Cc2c(Cl)cc(OC)cc2Cl)c2cc(NC(=O)C3CC3)ncc12 [Example 636, N-(5-((2,6-dichloro-4-methoxyphenyl)ethynyl)-8-(methylamino)-2,7-naphthyridin-3-yl)cyclopropanecarboxamide] | ≤ 100 | > 500 |
| CNc1ncc(C#Cc2ccc(S(=O)(=O)C3CC3)cc2)c2cc(NC(=O)C3CC3)ncc12 [Example 637, N-(5-((4-(cyclopropylsulfonyl)phenyl)ethynyl)-8-(methylamino)-2,7-naphthyridin-3-yl)cyclopropanecarboxamide] | ≤ 100 | ≤ 500 |
| CNc1ncc(C#Cc2ccc(OC3CC3)cc2)c2cc(NC(=O)C3CC3)ncc12 [Example 638, N-(5-((4-cyclopropoxyphenyl)ethynyl)-8-(methylamino)-2,7-naphthyridin-3-yl)cyclopropanecarboxamide] | ≤ 100 | ≤ 500 |
| CNc1ncc(C#Cc2ccc(N3CCOCC3)cc2C)c2cc(NC(=O)C3CC3)ncc12 [Example 639, N-(5-((2-methyl-4-morpholinophenyl)ethynyl)-8-(methylamino)-2,7-naphthyridin-3-yl)cyclopropanecarboxamide] | ≤ 100 | ≤ 500 |
| CNc1ncc(C#Cc2ccc(S(C)(=O)=O)cn2)c2cc(NC(=O)C3CC3)ncc12 [Example 640, N-(8-(methylamino)-5-((5-(methylsulfonyl)pyridin-2-yl)ethynyl)-2,7-naphthyridin-3-yl)cyclopropanecarboxamide] | ≤ 100 | ≤ 500 |
| CNc1ncc(C#Cc2cccnn2)c2cc(NC(=O)C3CC3)ncc12 [Example 641, N-(8-(methylamino)-5-(pyridazin-3-ylethynyl)-2,7-naphthyridin-3-yl)cyclopropanecarboxamide] | ≤ 100 | ≤ 500 |
| CNc1ncc(C#Cc2ccc3oc(CO)cc3c2)c2cc(NC(=O)C3CC3)ncc12 [Example 642, N-(5-((2-(hydroxymethyl)benzofuran-5-yl)ethynyl)-8-(methylamino)-2,7-naphthyridin-3-yl)cyclopropanecarboxamide] | ≤ 100 | ≤ 500 |
| CNc1ncc(C#Cc2ncc(OC)cc2Cl)c2cc(NC(=O)C3CC3)ncc12 [Example 643, N-(5-((3-chloro-5-methoxypyridin-2-yl)ethynyl)-8-(methylamino)-2,7-naphthyridin-3-yl)cyclopropanecarboxamide] | ≤ 100 | ≤ 500 |
| CNc1ncc(C#Cc2ccc(OC(F)(F)F)cn2)c2cc(NC(=O)C3CC3)ncc12 [Example 644, N-(8-(methylamino)-5-((5-(trifluoromethoxy)pyridin-2-yl)ethynyl)-2,7-naphthyridin-3-yl)cyclopropanecarboxamide] | ≤ 100 | ≤ 500 |
| CNc1ncc(C#Cc2ccc(OC(F)F)cn2)c2cc(NC(=O)C3CC3)ncc12 [Example 645, N-(5-((5-(difluoromethoxy)pyridin-2-yl)ethynyl)-8-(methylamino)-2,7-naphthyridin-3-yl)cyclopropanecarboxamide] | ≤ 100 | ≤ 500 |
| CNc1ncc(C#Cc2ccncc2C(F)(F)F)c2cc(NC(=O)C3CC3)ncc12 [Example 646, N-(8-(methylamino)-5-((3-(trifluoromethyl)pyridin-4-yl)ethynyl)-2,7-naphthyridin-3-yl)cyclopropanecarboxamide] | ≤ 100 | ≤ 500 |
| CNc1ncc(C#Cc2ccc3nc(C)n(C)c3c2)c2cc(NC(=O)C3CC3)ncc12 [Example 647, N-(5-((1,2-dimethyl-1H-benzo[d]imidazol-6-yl)ethynyl)-8-(methylamino)-2,7-naphthyridin-3-yl)cyclopropanecarboxamide] | ≤ 100 | ≤ 500 |

| Compound | Kd (TYK2 JH2) [nM] | IC50 [1] [nM] |
| --- | --- | --- |
| CNc1ncc(C#Cc2ccc(COC)cc2)c2cc(NC(=O)C3CC3)ncc12 [Example 648, N-(5-((4-(methoxymethyl)phenyl)ethynyl)-8-(methylamino)-2,7-naphthyridin-3-yl)cyclopropanecarboxamide] | ≤ 100 | ≤ 500 |
| CNc1ncc(C#Cc2ccc3c(cnn3C)c2)c2cc(NC(=O)C3CC3)ncc12 [Example 649, N-(5-((1-methyl-1H-indazol-5-yl)ethynyl)-8-(methylamino)-2,7-naphthyridin-3-yl)cyclopropanecarboxamide] | ≤ 100 | ≤ 500 |
| CNc1ncc(C#Cc2ccc(SC)cc2)c2cc(NC(=O)C3CC3)ncc12 [Example 650, N-(8-(methylamino)-5-((4-(methylthio)phenyl)ethynyl)-2,7-naphthyridin-3-yl)cyclopropanecarboxamide] | ≤ 100 | ≤ 500 |
| CNc1ccc(C#Cc2cnc(NC)c3cnc(NC(=O)C4CC4)cc23)cc1 [Example 651, N-(8-(methylamino)-5-((4-(methylamino)phenyl)ethynyl)-2,7-naphthyridin-3-yl)cyclopropanecarboxamide] | ≤ 100 | ≤ 500 |
| CNc1ncc(C#Cc2ccccc2C(C)(C)O)c2cc(NC(=O)C3CC3)ncc12 [Example 652, N-(5-((2-(2-hydroxypropan-2-yl)phenyl)ethynyl)-8-(methylamino)-2,7-naphthyridin-3-yl)cyclopropanecarboxamide] | ≤ 100 | ≤ 500 |
| CNc1ncc(C#Cc2cnn(C)n2)c2cc(NC(=O)C3CC3)ncc12 [Example 653, N-(5-((2-methyl-2H-1,2,3-triazol-4-yl)ethynyl)-8-(methylamino)-2,7-naphthyridin-3-yl)cyclopropanecarboxamide] | ≤ 100 | ≤ 500 |
| CNc1ncc(C#Cc2ccc(OC(F)F)cc2)c2cc(NC(=O)C3CC3)ncc12 [Example 654, N-(5-((4-(difluoromethoxy)phenyl)ethynyl)-8-(methylamino)-2,7-naphthyridin-3-yl)cyclopropanecarboxamide] | ≤ 100 | ≤ 500 |
| CNc1ncc(C#Cc2ccc(C(C)(F)F)cc2)c2cc(NC(=O)C3CC3)ncc12 [Example 655] | ≤ 100 | ≤ 500 |
| CNc1ncc(C#Cc2ccc(OCF)cc2)c2cc(NC(=O)C3CC3)ncc12 [Example 656, N-(5-((4-(fluoromethoxy)phenyl)ethynyl)-8-(methylamino)-2,7-naphthyridin-3-yl)cyclopropanecarboxamide] | ≤ 100 | ≤ 500 |
| CNc1ncc(C#Cc2ccc(C(F)(F)F)cn2)c2cc(NC(=O)C3CC3)ncc12 [Example 657, N-(8-(methylamino)-5-((5-(trifluoromethyl)pyridin-2-yl)ethynyl)-2,7-naphthyridin-3-yl)cyclopropanecarboxamide] | ≤ 100 | ≤ 500 |
| CNc1ncc(C#Cc2ccc(C(F)F)cn2)c2cc(NC(=O)C3CC3)ncc12 [Example 658] | ≤ 100 | ≤ 500 |
| CNc1ncc(C#Cc2ccc(C)cn2)c2cc(NC(=O)C3CC3)ncc12 [Example 659, N-(8-(methylamino)-5-((5-methylpyridin-2-yl)ethynyl)-2,7-naphthyridin-3-yl)cyclopropanecarboxamide] | ≤ 100 | ≤ 500 |
| CNc1ncc(C#Cc2ccc(CC(F)(F)F)cn2)c2cc(NC(=O)C3CC3)ncc12 [Example 660, N-(8-(methylamino)-5-((5-(2,2,2-trifluoroethyl)pyridin-2-yl)ethynyl)-2,7-naphthyridin-3-yl)cyclopropanecarboxamide] | ≤ 100 | ≤ 500 |
| CNc1ncc(C#Cc2ccc(C#N)cn2)c2cc(NC(=O)C3CC3)ncc12 [Example 661, N-(5-((5-cyanopyridin-2-yl)ethynyl)-8-(methylamino)-2,7-naphthyridin-3-yl)cyclopropanecarboxamide] | ≤ 100 | ≤ 500 |
| CNc1ncc(C#Cc2ccc(C(C)(C)O)cn2)c2cc(NC(=O)C3CC3)ncc12 [Example 662, N-(5-((5-(2-hydroxypropan-2-yl)pyridin-2-yl)ethynyl)-8-(methylamino)-2,7-naphthyridin-3-yl)cyclopropanecarboxamide] | ≤ 100 | ≤ 500 |
| CNc1ncc(C#Cc2cc(C)c(OC)cn2)c2cc(NC(=O)C3CC3)ncc12 [Example 663, N-(5-((5-methoxy-4-methylpyridin-2-yl)ethynyl)-8-(methylamino)-2,7-naphthyridin-3-yl)cyclopropanecarboxamide] | ≤ 100 | ≤ 500 |
